Compound | melting point [°C]
O=[N+]([O-])c1ccc(Cl)nc1O | 139 to 141
O=C1CC2(CCCCC2)C(=O)N1 | 132 to 140
O=c1c2ccccc2nc2n1CCO2 | 160 to 163
NS(=O)(=O)CCN1C(=O)c2ccccc2C1=O | 209 to 211
Cc1occc1-c1nnc(S)n1N | 159 to 161
NS(=O)(=O)c1cnn(CC(=O)O)c1 | 156 to 158
Clc1ccc2[nH]c(C3CCCN3)nc2c1 (stereo not given) | 124 to 126
O=C1CCCS(=O)(=O)C1 | 141 to 143
Cc1nnc2ccc(C#N)cn12 | 201 to 203
CC(=O)NC(=O)CCl | 113 to 115
O=C(O)c1sccc1S(=O)(=O)N1CCC(O)CC1 | 219 to 221
C#CCOc1c(Cl)cc(C=O)cc1OC | 106 to 108
Nc1ccc(C(=O)N2CCCCC2)nc1 | 170 to 172
Cn1c2ccccc2n2c(S)nnc12 | 270 to 272
Fc1ccc(OCC2CNCCO2)cc1F (stereo not given) | 49 to 51
NC(=O)c1c(N)sc2c1CCN(Cc1ccccc1)C2 | 76 to 78
O=C1NCNC(=O)N1 | 290 to 292
O=C(O)c1cc(C2CC2)on1 | 97 to 99
CCn1c(C)nnc1S | 129 to 131

Compound | melting point [°C]
CCOC(=O)c1ccn(-c2ccc(N)cc2)n1 | 97 to 99
CN1CC(N)C(=O)N1 (stereo not given) | 55 to 57
CC1CCCC(C)N1C(=O)CCl (stereo not given) | 71 to 73
NS(=O)(=O)c1ncccn1 | 173 to 175
CC(C)CNC(N)=S | 99 to 101
ClC(Cl)c1nnc(-c2ccccc2)o1 | 82 to 84
COc1ccc(-c2csc(CN)c2)cc1 | 124 to 126
Cn1nc(Br)c2c(NCCN)ncnc21 | 120 to 122
Cn1ccc2cc[nH]c(=O)c21 | 190 to 192
Sc1nc2ccccc2nc1S | 345 to 347
Cc1nn(C)c2c1NC(=O)CO2 | 219 to 221
Cc1ncsc1C(=O)NN | 168 to 170
Nc1cccnn1 | 169 to 171
OCCNCc1cccc(OCc2ccccc2Cl)c1 | 49 to 50
Cc1ccc(-n2c(N)nc3cc(C)ccc32)cc1 | 162 to 164
CCOC(=O)C(NS(C)(=O)=O)C(=O)OCC | 72 to 74
NC(=O)c1ccc(N)cc1F | 148 to 150
N#CCc1nc2scc(-c3ccccc3)c2c(=O)[nH]1 | 279 to 281
O=C(O)c1cnc(Cl)c([N+](=O)[O-])c1 | 126 to 128

Compound | melting point [°C]
O=C(Nc1cocn1)OCC(F)(F)F | 131 to 133
O=c1[nH]cnc2cc3ccccc3cc12 | 282 to 284
O=[N+]([O-])c1cccnc1N1CCC(CO)CC1 | 71 to 73
c1cc2c(cn1)NCCN2 | 135 to 137
N#Cc1cn(-c2ccc([N+](=O)[O-])cc2)nc1N | 278 to 280
O=Cc1csc(-c2ccccn2)n1 | 130 to 132
Nc1cc([N+](=O)[O-])ccc1Nc1ccc(F)cc1 | 162 to 164
Nc1ccn(CC(F)(F)F)n1 | 39 to 41
O=S1(=O)Nc2ncnn2-c2ccccc21 | 284 to 286
O=C(O)c1sccc1S(=O)(=O)N1CCSCC1 | 144 to 146
COc1ccc(NS(=O)(=O)c2ccc(N3CCCC3)c(N)c2)cc1 | 40 to 42
CS(=O)(=O)N1CCC(=O)CC1 | 97 to 99
CCc1cc2oc(=O)cc(CCl)c2cc1Cl | 170 to 172
Sc1nc2ncccn2n1 | 234 to 236
N#Cc1cccc(COc2ccc(N)cc2F)c1 | 69 to 71
Cc1noc(C(F)(F)F)c1C(=O)O | 140 to 142
CCCC1(CCC)NC(=O)NC1=O | 205 to 207
O=C1NCCC1c1ccccc1 (stereo not given) | 82 to 84

Now from value to molecule:

melting point [°C] | Compound
51 to 53 | CCNC(=O)CC(=O)O
56 to 58 | Cc1cc(Br)ccc1OCc1ccccc1
147 to 149 | Cn1nnnc1-c1cccc(N)c1
80 to 90 | Cc1nn(CC(C)C)c(C)c1CCC(=O)O
156 to 158 | CC(=O)Nc1ccc(SCC(=O)O)cc1
169 to 171 | O=C(O)Cc1ccc(OCCOc2ccccc2)cc1
119 to 121 | COc1ccc2nc(C)nc(Cl)c2c1
309 to 311 | Cc1ccc(C(=O)O)cc1NC(=O)Nc1ccccc1
149 to 151 | CN(CC(N)=S)C(=O)c1ccccc1
199 to 201 | CS(=O)(=O)Nc1ccc(Cl)cc1C(=O)O
83 to 85 | COc1ccc(C(=O)C(C)Br)cc1OC (stereo not given)
277 to 279 | CNC(C(=O)O)c1ccc(F)cc1F (stereo not given)
198 to 200 | O=C(O)c1cc(Cl)ccc1-n1cnnn1
146 to 148 | COc1ccccc1NC(=O)CC(N)=S
167 to 169 | O=C(O)c1cc(I)cc([N+](=O)[O-])c1
131 to 133 | COc1cccc(C2CC(=O)CC(=O)C2)c1
177 to 179 | Nc1cccc(CNC(=O)Nc2ccccc2Cl)c1
68 to 70 | CC(C)C(=O)NC(C)c1ccc(S(=O)(=O)Cl)s1 (stereo not given)
157 to 159 | O=C(O)c1ccc(OCC(=O)C2CC2)cc1
105 to 107 | CC(=O)CC(=O)Nc1cccc(Cl)c1
106 to 108 | O=C(c1cccnc1)c1cc2ccccc2o1
188 to 190 | Cc1cc(C)cc(C(=O)N2CCCC(C(=O)O)C2)c1 (stereo not given)
140 to 142 | Cc1c(N)cccc1N1CCOC1=O
237 to 239 | COc1ccc(C(N)CC(=O)O)cc1 (stereo not given)
133 to 135 | CN(C(=O)OC(C)(C)C)c1ccc(O)cc1

melting point [°C] | Compound
115 to 117 | CSCCC(NC(=O)c1cccc(C)c1)C(=O)O (stereo not given)
164 to 166 | CC(NC(N)=S)c1ccc(Cl)cc1Cl (stereo not given)
229 to 231 | O=C(O)CCc1nc2ccccc2[nH]1
179 to 181 | CC(C)NC(=O)c1ccc(C(=O)O)cc1
131 to 133 | CCOC(=O)/C(C#N)=C\Nc1cc(C)ccc1OC
83 to 85 | COC(=O)c1ccc2ccccc2n1
189 to 191 | CS(=O)(=O)c1ccc(C(=O)NN)cc1
182 to 184 | O=C(O)C1CCCN1S(=O)(=O)c1cccc([N+](=O)[O-])c1 (stereo not given)
199 to 201 | NC(=O)NC(CC(=O)O)c1ccc(Br)cc1 (stereo not given)
117 to 119 | O=C(O)c1sccc1SC(F)F
80 to 82 | O=C(O)CNS(=O)(=O)C=Cc1ccccc1
95 to 97 | CCOC(=O)Nc1cccc(O)c1
250 to 252 | O=C(O)c1ccc2c(c1)NC(=O)C1CCCN21 (stereo not given)
246 to 248 | COc1ccc(Br)c2[nH]c(C(=O)O)cc12
136 to 138 | NC(=O)c1cccc(NCc2ccc(F)cc2)c1
112 to 116 | NC(=S)CC(=O)NCc1ccccc1
39 to 41 | CCCCOc1cc(C=O)ccc1OC
124 to 126 | COc1ccc(C2(C(=O)O)CCCCC2)cc1OC
200 to 202 | O=C(O)c1cc2ccccc2c2cccnc12
94 to 96 | O=C(O)CCC(=O)c1cccc(F)c1
186 to 188 | CCn1c(CCC(=O)O)nc2cc(S(=O)(=O)N(C)C)ccc21
249 to 251 | O=C(O)c1cc2sc3ccccc3c2s1
114 to 116 | O=C(Nc1ncccc1O)c1ccc(C2SCCS2)cc1
147 to 151 | Cc1noc(C(C)C)c1C(=O)O
